Data reported in ChEMBL document CHEMBL1146924, “Beta-diketo acids with purine nucleobase scaffolds: novel, selective inhibitors of the strand transfer step of HIV integrase” (Bioorg Med Chem Lett, 2006).

Tests used:
[1] = molecular target: T1, Human immunodeficiency virus type 1 integrase (Human immunodeficiency virus 1, UniProt Q7ZJM1); assay: Inhibition of HIV1 integrase strand transfer step
[2] = molecular target: T1, Human immunodeficiency virus type 1 integrase; assay: Inhibition of HIV1 integrase 3'-processing step

T1 sequence (Q7ZJM1 whole entry): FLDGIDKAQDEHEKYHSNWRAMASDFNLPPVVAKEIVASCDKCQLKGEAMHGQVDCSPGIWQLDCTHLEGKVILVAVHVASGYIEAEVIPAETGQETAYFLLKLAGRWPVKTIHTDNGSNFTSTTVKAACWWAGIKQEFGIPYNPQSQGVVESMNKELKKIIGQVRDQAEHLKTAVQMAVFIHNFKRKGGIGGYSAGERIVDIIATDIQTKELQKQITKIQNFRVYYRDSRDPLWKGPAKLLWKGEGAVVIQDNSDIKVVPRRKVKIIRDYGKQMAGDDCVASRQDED

IC50 [1] [µM]	IC50 [2] [µM]	Compound
10	100	O=C(O)C(=O)/C=C(/O)c1nc2cncnc2n1Cc1ccccc1
4.1	31.5	O=C(O)C(=O)/C=C(/O)c1nc2c(=O)n(Cc3ccccc3)cnc2n1Cc1ccccc1
790	1000	O=C(O)C(=O)/C=C(\O)c1ncnc2c1ncn2Cc1ccccc1
2.7	30	O=C(O)C(=O)/C=C(\O)c1nc2c(ncn2Cc2ccccc2)c(=O)n1Cc1ccccc1
